Reference: patent publication US20220296595A1, “CDK INHIBITORS” (QILU REGOR THERAPEUTICS INC., priority 2019, published 2022)
Where two headings read alike, the source gives them in different places.

How the values were obtained:
[1] = molecular target: T1, CDK2/CyclinE1 (Homo sapiens, UniProt P24941); test: Assay for inhibition of CDK2/CyclinE1 (Caliper microfluidic kinase assay); assay type: biochemical; settings: read-out: CDK2 IC50
T1 construct: purchased SignalChem C29-18G
Procedure: The CDK2 enzyme assay for IC50 determination was performed as follows. Microfluidic kinase detection technology (Caliper) was used to monitor the phosphorylation of peptide substrate by CDK2/CyclinE1. The total reaction volume was 15 μL containing buffer A (100 mM HEPES (pH 7.5), 0.1% BSA, 0.01% Triton X-100, 1 mM DTT, 10 mM MgCl2, 10 μM Sodium Orthovanadate, 10 μM Beta-Glycerophosphate), 100 μM ATP, 5 nM CDK2/CyclinE1 (SignalChem, C29-18G), 5 μM FL-18 (5-FAM-QSPKKG-NH2), and the test compound at appropriate dilutions in DMSO. All components were added to the 384-well plate (Corning, 4514), and incubate at Room Temperature for 3 hours. The reaction was terminated by addition of 15 μL Stop Buffer (180 mM HEPES (pH 7.5), 20 mM EDTA, Coating-3 reagent (PerkinElmer, 760050)). The plate was loaded on Caliper EZ Reader (EZ Reader II, PerkinElmer, HD-4HYSG2772), and the reaction mixtures including substrate and product were sipped into the microfluidic chip for separation and detection. The IC50 values of the test compound were determined by fitting the inhibition curves by 4 parameter sigmoidal dose-response model using the Xlfit5/GraphPad Prism 5 software.

[2] = molecular target: T2, CDK4/CyclinD1 (Homo sapiens, UniProt P11802); test: Assay for inhibition of CDK4/CyclinD1 (Caliper microfluidic kinase assay); assay type: biochemical
T2 construct: purchased Thermofisher PR8064A
Procedure: The CDK4 enzyme assay for IC50 determination was performed as follows. Microfluidic kinase detection technology (Caliper) was used to monitor the phosphorylation of peptide substrate by CDK4/CyclinD1. The total reaction volume was 15 μL containing buffer A (100 mM HEPES (pH 7.5), 0.1% BSA, 0.01% Triton X-100, 1 mM DTT, 10 mM MgCl2, 10 μM Sodium Orthovanadate, 10 μM Beta-Glycerophosphate), 200 μM ATP, 1 nM CDK4/CyclinD1 (Thermofisher, PR8064A), 1 μM FL-34 (5-FAM-[…]), and the test compound at appropriate dilutions in DMSO. All components were added to the 384-well plate (Corning, 4514), and incubated at Room Temperature for 3 hours. The reaction was terminated by addition of 15 μL Stop Buffer (180 mM HEPES (pH 7.5), 20 mM EDTA, Coating-3 reagent (PerkinElmer, 760050)). The plate was then loaded on Caliper EZ Reader (EZ Reader II, PerkinElmer, HD-4HYSG2772), and the reaction mixtures including substrate and product were sipped into the microfluidic chip for separation and detection. The IC50 values of the test compound were determined by fitting the inhibition curves by 4 parameter sigmoidal dose-response model using the Xlfit5/GraphPad Prism 5 software.

[3] = system: T47D breast cancer cells; test: Anti-proliferation assay in T47D cell (Cyquant, day 6); assay type: cell-based, human; settings: anti-proliferation, T47D cells, read-out: T47D IC50
Description: T47D is a human breast cancer cell line commonly used in biomedical research involving the hormonal expression of cancer cells. T47D cells are distinct from other human breast cancer cells in that their progesterone receptors (PR) are not regulated by estradiol, a hormone that is abundant within the cells themselves. T47D cells have been employed in studies of the effects of progesterone on breast cancer and the corresponding transcriptional regulation caused by introduced drugs. The cells have been noted to be extremely resistant to estrogens and antiestrogens.
T47D breast cancer cells from American Type Culture Collection (ATCC, HTB-133) were plated at 3000 cells/well in 96-well plates, and were incubated in RPMI 1640 medium (Gibco, 31800105) with 10% Fetal Bovine Serum (FBS, Biowest, FB-1058) at 37° C., 5% CO2. After overnight incubation, baseline values were measured of the samples from one plate using Cyquant reagent (Invitrogen, C35011) following manufacturer's recommendations. Cells were incubated with the detection reagent for 1 hour at 37° C., and then the fluorescence was measured with excitation at 485 nm and emission at 535 nm using Spectra Max M5 (Molecular Devices, HD-4HYSG3196). Other plates were dosed with compounds at a ten-point dose concentration from 10 μM to 0.51 nM in a 3-fold dilution scheme. On day 6 after compound addition, Cyquant reagent was added and the fluorescence was measured using Spectra Max M5. The IC50 values of the test compound's anti-proliferation activity were determined from the baseline subtracted viability readout curve using Xlfit5/GraphPad Prism 5 software.

T2 sequence (P11802 whole entry): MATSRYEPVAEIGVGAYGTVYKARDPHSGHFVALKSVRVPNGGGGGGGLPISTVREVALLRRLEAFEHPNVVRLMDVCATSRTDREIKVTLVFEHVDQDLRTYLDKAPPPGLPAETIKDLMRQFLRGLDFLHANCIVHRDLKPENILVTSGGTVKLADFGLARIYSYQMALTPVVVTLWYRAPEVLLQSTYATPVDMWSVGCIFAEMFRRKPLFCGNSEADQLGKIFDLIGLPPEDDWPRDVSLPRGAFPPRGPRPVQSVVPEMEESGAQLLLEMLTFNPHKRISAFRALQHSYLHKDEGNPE
T2 sequence (P24385 whole entry partner): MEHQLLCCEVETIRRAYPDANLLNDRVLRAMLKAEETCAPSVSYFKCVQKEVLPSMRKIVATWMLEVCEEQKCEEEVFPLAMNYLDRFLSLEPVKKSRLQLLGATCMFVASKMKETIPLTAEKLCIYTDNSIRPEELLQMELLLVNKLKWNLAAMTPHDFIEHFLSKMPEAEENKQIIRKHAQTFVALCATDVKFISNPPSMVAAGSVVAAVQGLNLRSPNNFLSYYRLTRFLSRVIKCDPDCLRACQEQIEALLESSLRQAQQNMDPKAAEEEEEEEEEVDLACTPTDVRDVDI

Structure (SMILES)	IC50 ([1]; CDK2/CyclinE1, 100 μM ATP) [µM]	IC50 ([2]; CDK4/CyclinD1, 200 μM ATP) [µM]	IC50 [3] [µM]	IC50 ([3]; Homo sapiens, T47D) [µM]	IC50 ([1]; CDK2/CyclinE1) [µM]	IC50 ([2]; CDK4/CyclinD1) [µM]
CNC1CCN(c2ccc(Nc3nccc(-c4ccn5ncc(C(C)C)c5c4)n3)nc2)C(=O)C1 (single isomer, unassigned) [Synthetic Example 206, 1-[6-[[4-(3-isopropylpyrazolo[1,5-a]pyridin-5-yl)pyrimidin-2-yl]amino]-3-pyridyl]-4-(methylamino)piperidin-2-one]	< 0.01	< 0.01	< 0.1	–	–	–
Cc1nc2c(F)nc(-c3ccnc(Nc4ccc(N5CCCC(N(C)C)C5=O)cn4)n3)cc2n1C(C)C (single isomer, unassigned) [Synthetic Example 302, 3-(dimethylamino)-1-[6-[[4-(4-fluoro-1-isopropyl-2-methyl-imidazo[4,5-c]pyridin-6-yl)pyrimidin-2-yl]amino]-3-pyridyl]piperidin-2-one]	> 1	< 0.01	–	< 0.1	–	–
Cc1nc2c(F)nc(-c3ccnc(Nc4ccc(N5CCCC(N(C)C)C5=O)cn4)n3)cc2n1C(C)C (single isomer, unassigned) [Synthetic Example 303, 3-(dimethylamino)-1-[6-[[4-(4-fluoro-1-isopropyl-2-methyl-imidazo[4,5-c]pyridin-6-yl)pyrimidin-2-yl]amino]-3-pyridyl]piperidin-2-one]	> 1	< 0.01	< 0.1	–	–	–
CC(C)c1cnn2ccc(-c3nc(Nc4ccc(N5CCN(C6CC6)CCC5=O)cn4)ncc3F)cc12 [Synthetic Example 49]	0.1 to 1	< 0.01	–	0.1 to 0.5	–	–
CC(C)c1cnn2ccc(-c3nc(Nc4ccc(S(C)(=O)=O)cc4)ncc3F)cc12 [compound 6]	0.01 to 0.1	0.1 to 1	–	0.5 to 1	–	–
O=C1COCCN1c1ccc(Nc2ncc(F)c(-c3ccn4ncc(C5CCCC5)c4c3)n2)nc1 [compound 12]	0.1 to 1	0.01 to 0.1	–	0.5 to 1	–	–
CCN1CC(=O)N(c2ccc(Nc3ncc(F)c(-c4ccn5ncc(C(C)C)c5c4)n3)nc2)CC1=O [compound 14]	0.01 to 0.1	0.01 to 0.1	–	< 0.1	–	–
CC(C)c1cnn2ccc(-c3ccnc(Nc4ccc(C(=O)N5CCC(NC6CC6)C5)cc4)n3)cc12 (stereo not shown) [compound 21]	< 0.01	< 0.01	< 0.1	–	–	–
CC(C)c1cnn2ccc(-c3nc(Nc4ccc(N5CCN(CCF)CCC5=O)cn4)ncc3F)cc12 [compound 54]	0.01 to 0.1	< 0.01	–	0.1 to 0.5	–	–
CC(C)n1cnc2c(OC(F)F)nc(-c3ccnc(Nc4ccc(N5CCC(N(C)C)CC5=O)cn4)n3)cc21 (stereo not shown) [compound 64]	–	–	–	0.1 to 0.5	> 1	< 0.01
CCN1CCC(Cn2ccc(Nc3nccc(-c4cc5c(ncn5C(C)C)c(OC)n4)n3)n2)CC1 [compound 135]	> 1	0.01 to 0.1	–	0.1 to 0.5	–	–
CC(C)c1cnn2ccc(-c3ccnc(Nc4ccc(N5CCC(N(C)C)C5=O)cc4)n3)cc12 (stereo not shown) [compound 144]	< 0.01	< 0.01	–	< 0.1	–	–
CC(C)c1cnn2ccc(-c3ccnc(Nc4ccc(N5CCC(N(C)CCF)CC5=O)cn4)n3)cc12 (stereo not shown) [compound 170]	0.01 to 0.1	< 0.01	–	< 0.1	–	–
CC(C)c1cnn2ccc(-c3ccnc(Nc4ccc(N5CCCC(N(C)C)C5=O)cc4)n3)cc12 (stereo not shown) [compound 174]	0.1 to 1	< 0.01	–	0.1 to 0.5	–	–
Cc1nn2ccc(-c3ccnc(Nc4ccc(N5CCCC(N(C)C)C5=O)cc4)n3)cc2c1C(C)C (stereo not shown) [compound 178]	0.1 to 1	< 0.01	–	< 0.1	–	–
CNC1CCCN(c2ccc(Nc3nccc(-c4ccn5ncc(C(C)C)c5c4)n3)cn2)C1=O (stereo not shown) [compound 185]	0.01 to 0.1	< 0.01	–	< 0.1	–	–
CC(C)c1cnn2ccc(-c3ccnc(Nc4ccc(N5CCC(NCCF)CC5=O)cn4)n3)cc12 (stereo not shown) [compound 201]	< 0.01	< 0.01	–	< 0.1	–	–
CNC1CCCN(c2ccc(Nc3nccc(-c4ccn5ncc(C(C)C)c5c4)n3)nc2)C1=O (stereo not shown) [compound 208]	0.1 to 1	< 0.01	–	< 0.1	–	–
CC(C)c1cnn2ccc(-c3ccnc(Nc4ccc(N5C(=O)C6CC5CN6)cn4)n3)cc12 (stereo not shown) [compound 210]	0.01 to 0.1	< 0.01	–	> 1	–	–
CC(C)(C)c1cnn2ccc(-c3ccnc(Nc4ccc(N5C(=O)C6CC5CN6)cn4)n3)cc12 (stereo not shown) [compound 211]	< 0.01	< 0.01	–	0.5 to 1	–	–
Cc1nn2ccc(-c3ccnc(Nc4ccc(N5CCCC(N)C5=O)cc4)n3)cc2c1C(C)C (stereo not shown) [compound 216]	0.01 to 0.1	< 0.01	–	< 0.1	–	–
CC1(N)CCN(c2ccc(Nc3nccc(-c4ccn5ncc(C(C)(C)C)c5c4)n3)nc2)C(=O)C1 (stereo not shown) [compound 219]	< 0.01	< 0.01	–	< 0.1	–	–
CC(C)(C)c1cnn2ccc(-c3ccnc(Nc4ccc(N5CCCC(N)C5=O)cn4)n3)cc12 (stereo not shown) [compound 220]	0.01 to 0.1	< 0.01	–	< 0.1	–	–
CNC1CCCN(c2ccc(Nc3nccc(-c4ccn5ncc(C(C)(C)C)c5c4)n3)nc2)C1=O (stereo not shown) [compound 221]	> 1	< 0.01	–	< 0.1	–	–
CC(C)n1cnc2c1CN(c1nc(Nc3ccc(N4CCNCC4=O)cn3)ncc1F)CC2 [compound 238]	0.01 to 0.1	< 0.01	–	0.1 to 0.5	–	–
CC(C)n1cnc2c1CN(c1nc(Nc3ccc(N4CCOCC4=O)cn3)ncc1F)CC2 [compound 239]	0.01 to 0.1	< 0.01	–	0.1 to 0.5	–	–
CC(C)n1cnc2c(F)nc(-c3ccnc(Nc4ccc(N5CCC(N(C)C)CC5=O)cc4F)n3)cc21 (stereo not shown) [compound 305]	< 0.01	< 0.01	–	–	–	–
CC(C)n1cnc2c(F)nc(-c3ccnc(NC4CCN(S(C)(=O)=O)CC4)n3)cc21 [compound 310]	0.01 to 0.1	0.01 to 0.1	–	–	–	–
